{"source": "patent US20110015066A1", "about": "“Herbicidal Composition” (priority 2008, published 2011)", "key": {"[1]": {"assay": "Accelerated Heat Stability of compositions: active ingredient content before and after 14 days", "format": "physicochemical", "conditions": "1 %", "method": "The numbers of formulations were made up as described in above examples. The concentration of Clodinafop propargyl (15%)+Metsulfuron methyl (1%) 16% WP was tested for its active stability at elevated temperature (54±2° C.) and at 3 different pH ranges as shown below.\nThe storage stability of the compositions according the present invention was compared with the storage stability of compositions individually and in combination as Tank, mix and plant mixes. The term Tank mix means that clodinafop-propargyl and metsulfuron methyl are mixed in the tank at the time of spraying. The term plant mix means that ready mix of the clodinafop-propargyl and metsulfuron methyl are diluted in the tank before spraying."}, "broad leaf weeds": {"test_system": "broad leaf weeds", "assay": "Field trial in wheat: weed population and biomass of broad leaf weeds", "format": "in vivo", "method": "Parts and percentages are by weight unless otherwise indicated. Field tests were made at various trial sites. The performance of the new combination herbicide according to the present invention (Clodinafop 15% and metsulfuron methyl 1%), Metsulfuron methyl 20% WP and Clodinafop-propargyl 15% WP was evaluated against weed flora in wheat crop during rabi season. Recommended package of practices for wheat crop was followed to raise the crop. The herbicide treatments were applied as post emergence spray at 35 days after sowing (DAS). The data on weed population (number/m^2) and dry matter (gm/m^2) was taken after 60 days after sowing and at the harvest. Similar yields (quintal/hectare i.e. q/ha.) and yield attributed parameters like plant height, number of effective tiller, number of grain per ear-head, test weight were recorded at harvest. A statistical analysis of the entire data was carried out.\nThe major weed flora recorded in the experimental field were grasses like Phalaris minor and Avena fatua and broad leaf weeds namely Chenopodium album, Rumex sp., Convolvulus arvensis, Melilotus alba, Medicago denticulata, Fumaria sp. Vicia sativa and Anagalis arvensis."}, "Susceptible plants": {"test_system": "Susceptible plants", "conditions": "after post-emergence treatment; cited from earlier work"}}}
{"smiles": "COC(=O)c1ccccc1S(=O)(=O)NC(=O)Nc1nc(C)nc(OC)n1", "note": "[metsulfuron methyl, methyl 2-(4-methoxy-6-methyl-1,3,5-triazin-2-ylcarbamoylsulfamoyl)benzoate]", "values": [{"measurement": "Metsulfuron methyl % degradation", "setting": "[1]; pH 4.5", "value": 24.67, "unit": "%"}, {"measurement": "Metsulfuron methyl % degradation", "setting": "[1]; pH 6.8", "value": 12.64, "unit": "%"}, {"measurement": "Metsulfuron methyl % degradation", "setting": "[1]; pH 8.5", "value": 4.82, "unit": "%"}, {"measurement": "control of broad leaf weeds (in words)", "setting": "broad leaf weeds", "value": "superior control of broad leaf weeds only"}, {"measurement": "time in which susceptible plants are killed", "setting": "Susceptible plants", "value": "7 to 21", "unit": "days"}]}
